# Values joined by “and” are separate entries in the source; they are usually repeats but may differ in a detail not shown here. Equal entries are not always repeated.
# Test system: MCF7 multi-cell spheroids with HUVEC/MSC, viability
# Assay: Anticancer human tumor MCF7 cell line growth inhibition [IpAb];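 further: spheroids exposed to agents for seven days before readout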
# Conditions: for viability, T/C: stronger effect = lower value
# From the text: Combinatorial screen of targeted agents with ipatasertib and abemaciclib in multi-cell type tumor spheroids
# A high-throughput screen of multi-cell type tumor spheroids was designed to identify active combinations of targeted small molecules and ipatasertib or abemaciclib. Complex spheroids include a stromal component modeled by human endothelial cells (HUVEC) and fibroblasts modeled by human mesenchymal stem cells (MSCs). The concentration ranges selected for each drug and investigational agent were based upon clinically achievable concentrations if the clinical Cmax of the agent was known.
# Compounds. The drugs and investigational agents: ipatasertib (NSC767898), abemaciclib(NSC768073), selumetinib (NSC741078), trametinib (758246), adavosertib (NSC754352), everolimus (NSC733504), sapanisertib (NSC764658), vemurafenib (NSC761431), venetoclax (NSC766270), copanlisib (NSC809693), apelisib (NSC765974), palbociblib (NSC758247), vemurafenib (NSC761431), dabrafenib (NSC764134), ravoxertinib (NSC781343), BMS-387032 (NSC767048), sotorasib (NSC818433), talazoparib (NSC767125) and afursertib (NSC778305), were obtained from the National Cancer Institute (NCI) Developmental Therapeutics Program Chemical Repository. The FDA-approved anticancer drug set is available from the NCI Developmental Therapeutics Program. […] The stock solutions were prepared in dimethyl sulfoxide (DMSO, Sigma-Aldrich, St. Louis, MO, cat. D2650) at 800-fold the tested concentration and stored at -70 degrees C prior to their use. All drugs and investigational agents were tested over a range starting from a high concentration at or near the clinical Cmax and decreasing in half-log increments. If the clinical Cmax for an agent had not been determined, the highest concentration tested was 10 microM.
# NCI60 Cell Culture. NCI60 cell lines were obtained from the NCI Developmental Therapeutics Program Tumor Repository. For each lot of cells, the Repository performed Applied Biosystems AmpFLSTR Identifiler testing with PCR amplification to confirm consistency with the published Identifier STR profile for each cell line. Cells were kept in continuous culture for no more than 20 passages. The optimal seeding densities for each of the cell lines at each time point assessed were determined prior to performing the concentration response studies. Briefly, the NCI60 human tumor lines were grown as monolayers in RPMI 1640 medium supplemented with 10% FBS and 2 mmol/L L-glutamine.
# An additional 9 lines were from the NCI60 cell line panel including MDA-MB-231 breast carcinoma, MDA-MB-468 breast carcinoma, MCF7 breast carcinoma, Hs578T breast carcinoma, MALME-3M melanoma, SK-MEL-2 melanoma, SK-OV-3 ovarian carcinoma, DU-145 prostate carcinoma, PC-3 prostate carcinoma, all cell lines along with major genetic alterations are listed on Table 2. Pooled donor human umbilical vein endothelial cells (HUVEC, Lonza, cat. CC-2519) and human mesenchymal stem cells (hMSC, Lonza, cat. PT-2501) were purchased from Lonza (Walkersville, MD).
# PDMR cell lines were grown in complete medium (DC medium): Dulbecco's modified Eagle's medium (DMEM)/F12 supplemented with 5% fetal bovine serum (FBS), 2 mM L-glutamine, 100 U/mL penicillin and 100 µg/ml streptomycin, 0.4 µg/ml hydrocortisone, 10 ng/ml epidermal growth factor (EGF) recombinant human protein, 24 µg/mL adenine, and 0.1 mg/mL primocin. During culture from frozen stock vials, PDMR cells were cultured in the same medium containing 10 µM Y-27632 (see Table 3). The PDCs were cultured in complete DMEM/F12 media without 10 microM Y-27632 dihydrochloride for at least two passages prior to the screen. The pooled donor HUVEC and hMSC were cultured in endothelial cell growth medium 2 (PromoCell, Heidelberg, Germany, cat. C-22011) and mesenchymal stem cell growth medium 2 (PromoCell, cat. C-28009), respectively. For all experiments, HUVEC and hMSC were used at passages </=5.
# […]
# [1] = curve of first compound, second compound 0.1 µM
# [2] = curve of first compound, second compound 0.316 µM
# [3] = curve of first compound, second compound 1 µM
smiles,measurement,setting,value
Cn1cnc2c(F)c(Nc3ccc(Br)cc3Cl)c(C(=O)NOCCO)cc21 + CCN1CCN(Cc2ccc(Nc3ncc(F)c(-c4cc(F)c5nc(C)n(C(C)C)c5c4)n3)nc2)CC1,IC50,"curve of first compound, second compound 0.01 µM",> 3 µM
same,IC50,"curve of first compound, second compound 0.0316 µM",> 3 µM
same,IC50,[1],> 3 µM
same,IC50,[2],> 3 µM
same,IC50,[3],> 3 µM
same,"viability, T/C","second compound 0.01 µM, first compound 0.00949 µM",104%
same,"viability, T/C","second compound 0.01 µM, first compound 0.03 µM",121%
same,"viability, T/C","second compound 0.01 µM, first compound 0.0949 µM",103%
same,"viability, T/C","second compound 0.01 µM, first compound 0.3 µM",113%
same,"viability, T/C","second compound 0.01 µM, first compound 0.949 µM",125%
same,"viability, T/C","second compound 0.01 µM, first compound 3 µM",100%
same,"viability, T/C","second compound 0.0316 µM, first compound 0.00949 µM",94.4%
same,"viability, T/C","second compound 0.0316 µM, first compound 0.03 µM",113%
same,"viability, T/C","second compound 0.0316 µM, first compound 0.0949 µM",109%
same,"viability, T/C","second compound 0.0316 µM, first compound 0.3 µM",116%
same,"viability, T/C","second compound 0.0316 µM, first compound 0.949 µM",119%
same,"viability, T/C","second compound 0.0316 µM, first compound 3 µM",99%
same,"viability, T/C","second compound 0.1 µM, first compound 0.00949 µM",130%
same,"viability, T/C","second compound 0.1 µM, first compound 0.03 µM",120%
same,"viability, T/C","second compound 0.1 µM, first compound 0.0949 µM",117%
same,"viability, T/C","second compound 0.1 µM, first compound 0.3 µM",127%
same,"viability, T/C","second compound 0.1 µM, first compound 0.949 µM",127%
same,"viability, T/C","second compound 0.1 µM, first compound 3 µM",113%
same,"viability, T/C","second compound 0.316 µM, first compound 0.00949 µM",119%
same,"viability, T/C","second compound 0.316 µM, first compound 0.03 µM",132%
same,"viability, T/C","second compound 0.316 µM, first compound 0.0949 µM",132%
same,"viability, T/C","second compound 0.316 µM, first compound 0.3 µM",126%
same,"viability, T/C","second compound 0.316 µM, first compound 0.949 µM",120%
same,"viability, T/C","second compound 0.316 µM, first compound 3 µM",108%
same,"viability, T/C","second compound 1 µM, first compound 0.00949 µM",107%
same,"viability, T/C","second compound 1 µM, first compound 0.03 µM",110%
same,"viability, T/C","second compound 1 µM, first compound 0.0949 µM",107%
same,"viability, T/C","second compound 1 µM, first compound 0.3 µM",95.5%
same,"viability, T/C","second compound 1 µM, first compound 0.949 µM",88.5%
same,"viability, T/C","second compound 1 µM, first compound 3 µM",88.5%
CC(C)(C)c1cnc(CSc2cnc(NC(=O)C3CCNCC3)s2)o1,"viability, T/C",compound 0.00949 µM,105% and 109%
same,"viability, T/C",compound 0.03 µM,100% and 104%
same,"viability, T/C",compound 0.0949 µM,51.5% and 37.9%
same,"viability, T/C",compound 0.3 µM,22% and 24.1%
same,"viability, T/C",compound 0.949 µM,27.4% and 28.2%
same,"viability, T/C",compound 3 µM,35.6% and 32.6%
same,IC50,curve of compound,0.1 µM and 0.0767 µM
Cn1nccc1Nc1nccc(-c2ccn(C(CO)c3ccc(Cl)c(F)c3)c(=O)c2)n1 (configuration not stated) + CC(C)NCC(C(=O)N1CCN(c2ncnc3c2C(C)CC3O)CC1)c1ccc(Cl)cc1,IC50,[1],> 10 µM
same,IC50,[2],> 10 µM
same,IC50,[3],> 10 µM
same,IC50,"curve of first compound, second compound 3.16 µM",> 10 µM
same,IC50,"curve of first compound, second compound 10 µM",< 0.0316 µM
same,"viability, T/C","second compound 0.1 µM, first compound 0.0316 µM",82.7%
same,"viability, T/C","second compound 0.1 µM, first compound 0.1 µM",85.4%
same,"viability, T/C","second compound 0.1 µM, first compound 0.316 µM",91%
same,"viability, T/C","second compound 0.1 µM, first compound 1 µM",116%
same,"viability, T/C","second compound 0.1 µM, first compound 3.16 µM",113%
same,"viability, T/C","second compound 0.1 µM, first compound 10 µM",98.5%
same,"viability, T/C","second compound 0.316 µM, first compound 0.0316 µM",72.7%
same,"viability, T/C","second compound 0.316 µM, first compound 0.1 µM",77.4%
same,"viability, T/C","second compound 0.316 µM, first compound 0.316 µM",78.3%
same,"viability, T/C","second compound 0.316 µM, first compound 1 µM",77.6%
same,"viability, T/C","second compound 0.316 µM, first compound 3.16 µM",99.6%
same,"viability, T/C","second compound 0.316 µM, first compound 10 µM",76.8%
same,"viability, T/C","second compound 1 µM, first compound 0.0316 µM",65.2%
same,"viability, T/C","second compound 1 µM, first compound 0.1 µM",66.7%
same,"viability, T/C","second compound 1 µM, first compound 0.316 µM",74.4%
same,"viability, T/C","second compound 1 µM, first compound 1 µM",74.6%
same,"viability, T/C","second compound 1 µM, first compound 3.16 µM",77.7%
same,"viability, T/C","second compound 1 µM, first compound 10 µM",77.5%
same,"viability, T/C","second compound 3.16 µM, first compound 0.0316 µM",51.9%
same,"viability, T/C","second compound 3.16 µM, first compound 0.1 µM",55%
same,"viability, T/C","second compound 3.16 µM, first compound 0.316 µM",52.1%
same,"viability, T/C","second compound 3.16 µM, first compound 1 µM",56.2%
same,"viability, T/C","second compound 3.16 µM, first compound 3.16 µM",64.2%
same,"viability, T/C","second compound 3.16 µM, first compound 10 µM",72.6%
same,"viability, T/C","second compound 10 µM, first compound 0.0316 µM",43.8%
same,"viability, T/C","second compound 10 µM, first compound 0.1 µM",41%
same,"viability, T/C","second compound 10 µM, first compound 0.316 µM",38.4%
same,"viability, T/C","second compound 10 µM, first compound 1 µM",49.4%
same,"viability, T/C","second compound 10 µM, first compound 3.16 µM",44.2%
same,"viability, T/C","second compound 10 µM, first compound 10 µM",44.2%

# Source: PubChem BioAssay AID2060329 (Molecular Pharmacology Branch, DTP, NCI, 2025)
